Experimental data taken from patent US8664221B2 (Santen Pharmaceutical Co., Ltd., priority 2008, dated 2014).

Experiments:
[1] = test system: IL-6 production induced by lipopolysaccharide (LPS) in human corneal epithelial cells (HCE-T); experiment: Inhibition of LPS-induced IL-6 production in human corneal epithelial cells (GR agonist activity); type: cell-based; settings: Corneal epithelial cell, 10 μL of 100 μM test compound solution per well, 4 hours incubation, efficacy relative to DEX
Description: In order to evaluate a GR agonist activity of the present compound, the inhibitory effects on the IL-6 production induced by lipopolysaccharide (LPS) in human corneal epithelial cells. IL-6 levels in the conditioned medium were measured using the HTRF human IL-6 Kit (boehringer-Ingelheim, Cat No. 62IL6PEB), and the procedure was carried out according to the protocol attached to the kit. Hereinafter, the specific method will be described.
LPS solution: After LPS was dissolved in phosphate buffer solution (hereinafter referred to as PBS(−)), the resulting solution was diluted with 10% FBS-DMEM/F12 medium, whereby a 1 μg/mL LPS solution was prepared.
After a test compound was dissolved in dimethylsulfoxide (hereinafter referred to as DMSO), the resulting solution was diluted with 10% FBS-DMEM/F12 medium, whereby a 100 μM test compound solution was prepared. A 100 μM DEX solution was prepared by the same method, and the inhibitory ratio of IL-6 production of DEX was evaluated to use for calculating efficacy (% DEX).
Used cell: SV40-immortalized human corneal epithelial cells (HCE-T) (RIKEN)
1) HCE-T cells were harvested, and seeded at 2.0×10^4 cells/0.1 mL/well in a 96-well plate.
2) After incubation overnight, the medium was removed and a 80 μL of new 10% FBS-DMEM/Ham's F12 medium was added into each well.
3) A 10 μL of test compounds solution was added into each well.
4) A 10 μL of LPS solution was added into each well.
5) As a negative control, a 10 μL of 10% FBS-DMEM/Ham's F12 medium was added into each well instead of a test compound solution and a LPS solution.
6) As a positive control, a 10 μL of 10% FBS-DMEM/Ham's F12 medium containing 1% DMSO was added into each well instead of a test compound solution.
7) After 4 hours incubation, supernatants were collected and IL-6 levels in the supernatants were quantitated using the HTRF human IL-6 Kit.
8) The inhibition ratio of IL-6 production (%) was calculated according to the following equation.
The inhibition ratio of IL-6 production (%) was calculated according to the following equation. The inhibition ratio of IL-6 production (%)=100×{1−(IL-6 level in each group−mean value of IL-6 level in negative control)/(mean value of IL-6 level in positive control−mean value of IL-6 level in negative control)} (%)
Furthermore, the inhibition ratio of IL-6 production (efficacy (% DEX)) was also calculated according to the following equation. Efficacy(% DEX)=100×{(mean value of IL-6 inhibition in compound-treated group)/(mean value of IL-6 inhibition in DEX-treated group)} (%) (Results and Discussion)

[2] = test system: carrageenan-induced paw edema model in rats; experiment: Carrageenan-induced paw edema model; type: in vivo; settings: female Lewis rat; 10 mg/kg oral, 30 minutes before carrageenan; paw volume 3 hr after injection; read-out: Inhibition ratio of paw edema (%)
Description: The inhibitory effect for paw edema using carrageenan-induced paw edema model in rats is known as one of the general methods for testing the inhibitory effect on inflammation on the joint and the like. Therefore, the inhibitory effect of the present compound for paw edema was carried out, the inhibition rate of paw edema was calculated, and then the anti-inflammatory effect of the present compound was evaluated based on the rate. The concrete method of the test is described below.
A 2 mg/mL test compound suspension was prepared by adding 1% methyl cellulose (base) to the test compound.
1) The weight and right hind paw volume of female Lewis rat (8˜10 weeks) were measured before drug administration.
2) The test compound suspension was administered at 10 mg/kg to the test compound group. Meanwhile, 1% methyl cellulose was administered orally at 5 mL/kg to the sham-operation group and vehicle group (control group).
3) After 30 minutes from oral administration, 0.1 mL of a 1% w/v carrageenan/distilled water solution was subcutaneously injected into right foot pad. 0.1 mL of distilled water was subcutaneously injected for sham-operation group.
4) The right hind paw volume was measured 3 hr after injection of carrageenan or distilled water.
(Formulation Concerning Estimation of Drug Activity) The increase ratio of paw volume (%)=100×(right hind paw volume 3 hr after injection of carrageenan or distilled water (mL)−right hind paw volume before the test compound administration (mL))/right hind paw volume before the test compound administration (mL) (Calculation Equation 1) The inhibition ratio of paw edema (%)=100−100×(the increase ratio of paw volume of each test compound group (%)−the increase ratio of paw volume of sham-operation group (%))/(the increase of paw volume of vehicle group (%)−the increase of paw volume of sham-operation group (%)) (Calculation Equation 2) (Test Results and Discussion)

[3] = test system: allergic conjunctivitis model in mice; experiment: Inhibitory effect on vascular hyper-permeability in allergic conjunctivitis model; type: in vivo; settings: male BALB/c mice, ovalbumin-sensitized; 1% (W/V) suspension instilled 15 min, 1 hr and 3 hrs before ovalbumin; Evans blue dye leakage; mean of 6 eyes
Description: In order to evaluate anti-allergic effect of the present compound, the inhibitory effect on the vascular hyper-permeability in allergic conjunctivitis model in mice was examined. This effect was calculated based on dye leakages of vehicle-treated group (control group) and test compound-treated group.
By adding 0.5% polysorbate 80/saline to the test compound, a 1% (W/V) test compound suspension was prepared.
1) Ovalbumin absorbed on aluminum hydroxide gel was dissolved in saline (20 μg ovalbumin/mL), and male BALB/c mice, 6 weeks old, were actively sensitized to the antigen by intraperitoneal injections of 500 μL of it.
2) On the 6th day from sensitization, sensitized mice were boosted by additional intraperitoneal injections of 500 μL ovalbumin absorbed on aluminum hydroxide gel (20 μg ovalbumin/mL).
3) On the 11th day, 12th day, 13th day, 14th day and 15th day from the first sensitization, allergic conjunctivitis were induced by instillations to the right eyes of the mice of […] of 50% glycerol solution containing 15% (W/V) ovalbumin.
4) […] of test compound suspension per eye was instilled to the right eye of the above mice 15 min, 1 hr and 3 hrs before ovalbumin instillation (three times) on the 15th day from sensitization. In vehicle-treated group (control group), the mice were instilled with 0.5% polysorbate 80/saline in substitution for test compound suspension.
5) Just before ovalbumin instillation on the 15th day from sensitization, all animals received a tail intravenous injection of 0.1% Evans blue dye. The right periocular tissues of the mice, which were the leaked parts of dye, were collected 30 min after ovalbumin instillation. The dye was extracted from the tissues with the dye extraction liquid. Then the absorbance of the dye extract was measured. The dye leakage was calculated from the absorbance value, and the inhibition ratio of the vascular hyper-permeability of test compound-treated group was calculated according to calculation equation 1. The inhibition ratio of the vascular hyper-permeability of test compound-treated group (%)=(1−Ax/Ao)×100 (Calculation Equation 1) • Ao: Dye leakage in vehicle-treated group (control group) • Ax: Dye leakage in test compound-treated group (Test Results and Discussion)

Row | SMILES | Emax [1] | inhibition in vivo at 10 mg/kg [2] | The inhibition ratio of the vascular hyper-permeability (%) [3]
1 | COc1cc(OS(=O)(=O)C2CC2)ccc1-c1ccc2c(c1CNc1cc(F)ccc1C)N(C)C(=O)C(C)(C)N2 | 81% | 52% | 
2 | CCCS(=O)(=O)Oc1ccc(-c2ccc3c(c2COc2cc(F)ccc2C)N(C)C(=O)C(C)(C)N3)c(OC)c1 [Compound No. 1-2, 8-(5-Fluoro-2-methylphenoxymethyl)-7-(2-methoxy-4-propyl-sulfonyloxyphenyl)-1,3,3-trimethyl-3,4-dihydro-1H-quinoxalin-2-one] | 91% |  | 37%
3 | CCCCS(=O)(=O)Oc1ccc(-c2ccc3c(c2COc2cc(F)ccc2C)N(C)C(=O)C(C)(C)N3)c(OC)c1 [Compound No. 1-5, 7-(4-Butylsulfonyloxy-2-methoxyphenyl)-8-(5-fluoro-2-methyl-phenoxymethyl)-1,3,3-trimethyl-3,4-dihydro-1H-quinoxalin-2-one] | 88% |  | 30%
4 | CCS(=O)(=O)Oc1ccc(-c2ccc3c(c2COc2cc(F)ccc2C)N(C)C(=O)C(C)(C)N3)c(OC)c1 [Compound No. 1-6, 7-(4-Ethylsulfonyloxy-2-methoxyphenyl)-8-(5-fluoro-2-methyl-phenoxymethyl)-1,3,3-trimethyl-3,4-dihydro-1H-quinoxalin-2-one] | 86% | 63% | 
5 | COc1cc(OS(=O)(=O)C(C)C)ccc1-c1ccc2c(c1COc1cc(F)ccc1C)N(C)C(=O)C(C)(C)N2 [Compound No. 1-7, 8-(5-Fluoro-2-methylphenoxymethyl)-7-(4-isopropylsulfonyloxy-2-methoxyphenyl)-1,3,3-trimethyl-3,4-dihydro-1H-quinoxalin-2-one] | 94% | 43% | 
6 | COc1cc(OS(=O)(=O)CC(C)C)ccc1-c1ccc2c(c1COc1cc(F)ccc1C)N(C)C(=O)C(C)(C)N2 [Compound No. 1-11, 8-(5-Fluoro-2-methylphenoxymethyl)-7-(4-isobutylsulfonyloxy-2-methoxyphenyl)-1,3,3-trimethyl-3,4-dihydro-1H-quinoxalin-2-one] | 99% |  | 20%
7 | COc1cc(OS(=O)(=O)CCC(F)(F)F)ccc1-c1ccc2c(c1COc1cc(F)ccc1C)N(C)C(=O)C(C)(C)N2 [Compound No. 1-12, 8-(5-Fluoro-2-methylphenoxymethyl)-7-[2-methoxy-4-(3,3,3-trifluoro-propylsulfonyloxy)phenyl]-1,3,3-trimethyl-3,4-dihydro-1H-quinoxlin-2-one] | 100% |  | 15%
8 | COc1cc(OS(=O)(=O)C2CCCC2)ccc1-c1ccc2c(c1COc1cc(F)ccc1C)N(C)C(=O)C(C)(C)N2 [Compound No. 1-16, 7-(4-Cyclopentylsulfonyloxy-2-methoxyphenyl)-8-(5-f1uoro-2-methylphenoxymethyl)-1,3,3-trimethly-3,4-dihydro-1H-quinoxalin-2-one] | 91% |  | 18%
9 | CCCS(=O)(=O)Oc1ccc(-c2ccc3c(c2COC(=O)c2ccc(C)s2)N(C)C(=O)C(C)(C)N3)c(OC)c1 [Compound No. 1-22, 7-(2-Methoxy-4-propylsulfonyloxyphenyl)-8-(5-methylthiophen-2-ylcarbonyloxymethyl)-1,3,3-trimethyl-3,4-dihydro-1H-quinoxalin-2-one] | 99% |  | 21%
10 | COc1cc(OS(=O)(=O)C(C)C)ccc1-c1ccc2c(c1COC(=O)c1ccc(C)s1)N(C)C(=O)C(C)(C)N2 [Compound No. 1-23, 7-(4-Isopropylsulfonyloxy-2-methoxyphenyl)-8-(5-methylthiophen-2-ylcarbonyloxymethyl)-1,3,3-trimethyl-3,4-dihydro-1H-quinoxalin-2-one] | 83% |  | 10%
11 | COc1cc(OS(=O)(=O)C2CC2)ccc1-c1ccc2c(c1COc1cc([N+](=O)[O-])ccc1C)N(C)C(=O)C(C)(C)N2 [Compound No. 1-32, 7-(4-Cyclopropylsulfonyloxy-2-methoxyphenyl)-8-(2-methyl-5-nitrophenoxymethyl)-1,3,3-trimethyl-3,4-dihydro-1H-quinoxalin-2-one] | 90% | 61% | 
12 | CCCS(=O)(=O)Oc1ccc(-c2ccc3c(c2CNc2cc(F)ccc2C)N(C)C(=O)C(C)(C)N3)c(OC)c1 [Compound No. 1-44, 8-(5-Fluoro-2-methylphenylaminomethyl)-7-(2-methoxy-4-propyl-sulfonyloxyphenyl)-1,3,3-trimethyl-3,4-dihydro-1H-quinoxalin-2-one] | 88% |  | 22%
13 | COc1ccccc1NCc1c(-c2ccc(OS(=O)(=O)C(C)C)cc2OC)ccc2c1N(C)C(=O)C(C)(C)N2 [Compound No. 2-5] | 74% | 40% | 
14 | COc1ccccc1NCc1c(-c2ccc(OS(=O)(=O)C3CCCC3)cc2OC)ccc2c1N(C)C(=O)C(C)(C)N2 [Compound No. 2-6, 7-(4-Cyclopentylsulfonyloxy-2-methoxypheny1)-8-(2-methoxyphenylaminomethyl)-1,3,3-trimethyl-3,4-dihydro-1H-quinoxalin-2-one] | 82% |  | 13%
15 | CCCS(=O)(=O)Oc1ccc(-c2ccc3c(c2CNc2ccccc2OC)N(C)C(=O)C(C)(C)N3)c(OC)c1 [Compound No. 2-7, 8-(2-Methoxyphenylaminomethyl)-7-(2-methoxy-4-propylsulfonyl-oxyphenyl)-1,3,3-trimethyl-3,4-dihydro-1H-quinoxalin-2-one] | 94% | 52% | 35%
